Experimental data as given in US12673946B2, “Pyrimidin-4(3H)-one derivatives as TRPV4 antagonists” (RaQualia Pharma Inc., priority 2020, dated 2026).

Target: T1, human TRPV4 (Homo sapiens, UniProt Q9HBA0)
T1 construct: host or cells: tetracycline-inducible Flp-In T-REx 293 cells
Test: Hypotonicity-induced Ca2+ influx (Fluo-4, FDSS)
Format: cell-based
Summary of the method: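 Flp-In T-REx 293 cells with tetracycline-induced human TRPV4, loaded with Fluo-4 for 60 min at 25 °C. Compound added 5 min before hypotonic mannitol/CaCl2 solution. Ca2+ signal recorded for 4.5 min on FDSS.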

[1] = Flp-In T-REx 293 cells expressing human TRPV4, examples listed under heading 'Human IC50<50 nM'
[2] = Flp-In T-REx 293 cells stably expressing human TRPV4, compounds listed by potency bin (<10 nM Tables 96-1/96-2, <3 nM Table 97)

T1 sequence (Q9HBA0 whole entry): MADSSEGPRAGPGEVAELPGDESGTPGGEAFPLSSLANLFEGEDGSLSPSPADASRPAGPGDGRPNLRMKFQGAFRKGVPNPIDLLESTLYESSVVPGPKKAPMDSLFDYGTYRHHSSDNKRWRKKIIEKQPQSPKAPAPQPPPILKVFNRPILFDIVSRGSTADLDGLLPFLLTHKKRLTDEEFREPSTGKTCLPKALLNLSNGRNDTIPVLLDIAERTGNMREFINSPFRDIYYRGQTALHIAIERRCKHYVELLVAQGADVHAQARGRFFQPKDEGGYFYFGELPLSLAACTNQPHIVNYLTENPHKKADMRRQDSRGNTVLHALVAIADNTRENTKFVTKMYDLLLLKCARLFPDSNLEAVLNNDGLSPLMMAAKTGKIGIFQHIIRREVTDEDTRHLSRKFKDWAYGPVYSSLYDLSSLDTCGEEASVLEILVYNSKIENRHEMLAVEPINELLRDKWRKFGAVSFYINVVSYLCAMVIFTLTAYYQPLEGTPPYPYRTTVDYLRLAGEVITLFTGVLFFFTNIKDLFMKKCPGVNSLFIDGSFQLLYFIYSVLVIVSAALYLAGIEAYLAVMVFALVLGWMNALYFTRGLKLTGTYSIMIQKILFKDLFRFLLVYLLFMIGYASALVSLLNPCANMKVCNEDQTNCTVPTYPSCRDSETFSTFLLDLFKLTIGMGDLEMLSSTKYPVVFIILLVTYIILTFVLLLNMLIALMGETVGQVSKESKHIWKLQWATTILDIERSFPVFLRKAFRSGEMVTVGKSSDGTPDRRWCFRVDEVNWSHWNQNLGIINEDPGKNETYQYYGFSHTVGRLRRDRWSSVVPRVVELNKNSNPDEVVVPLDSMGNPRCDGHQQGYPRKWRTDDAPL

SMILES | IC50 [1] [nM] | IC50 [2] [nM]
N#Cc1cccc(-c2cccc(C3(c4nc5c(c(=O)[nH]4)CN(C(=O)[C@H](O)c4cccc(C(F)(F)F)c4)CCC5)CC3)c2)c1 [42-5] | < 50 | < 3
O=C([C@H](O)c1cccc(Cl)c1)N1CCc2nc(C3(c4cccc(-c5ccccc5)c4)CC3)[nH]c(=O)c2C1 [14-10] | < 50 | < 10
O=C([C@H](O)c1cccc(C(F)(F)F)c1)N1CCCc2nc(C3(c4cccc(-c5cccnc5)c4)CC3)[nH]c(=O)c2C1 [42-8] | < 50 | < 3
O=C([C@H](O)c1cccc(-c2cccc(C(F)(F)F)c2)c1)N1CCc2nc(C3(c4cccc(Cl)c4)CC3)[nH]c(=O)c2C1 [45-4] | < 50 | < 10
O=C([C@H](O)c1cccc(Cl)c1)N1CCCc2nc(C3(c4cc(-c5cccnc5)cs4)CC3)[nH]c(=O)c2C1 [39-3] | < 50 | 
O=C(C(O)c1cccc(S(F)(F)(F)(F)F)c1)N1CCCc2nc(C3(c4cccs4)CC3)[nH]c(=O)c2C1 (stereo not shown) [18-8] | < 50 | < 10
O=C([C@H](O)c1cccc(-c2cccc(OC(F)(F)F)c2)c1)N1CCCc2nc(C3(c4cncc(C5CCCCC5)c4)CC3)[nH]c(=O)c2C1 [55-10] | < 50 | < 10
O=C(C(O)c1cccc(-c2cccc(F)c2)c1)N1CCCc2nc(C3(c4cccc(F)c4)CC3)[nH]c(=O)c2C1 (stereo not shown) [17-48] | < 50 | 
O=C(C(O)c1cccc(-c2cccc(F)c2)c1)N1CCc2nc(C3(c4cccc(Cl)c4)CC3)[nH]c(=O)c2C1 (stereo not shown) [14-12] | < 50 | < 10
O=C([C@H](O)c1cccc(Cl)c1)N1CCCc2nc(C3(c4ccnc(Oc5ccccc5)c4)CC3)[nH]c(=O)c2C1 [19-9] | < 50 | 
O=C(Cc1cccc(-c2cccc(OC(F)(F)F)c2)c1)N1CCCc2nc(C3(c4ccccc4)CC3)[nH]c(=O)c2C1 [57-2] | < 50 | < 3
O=C([C@H](O)c1cccc(C(F)(F)F)c1)N1CCCc2nc(C3(c4cccc(-c5cncnc5)c4)CC3)[nH]c(=O)c2C1 [42-33] | < 50 | 
CC(C)(C)c1cccc(-c2cccc([C@@H](O)C(=O)N3CCCc4nc(C5(c6cccc(-c7csc8ccccc78)c6)CC5)[nH]c(=O)c4C3)c2)c1 [52-12] | < 50 | < 10
CC(C)(C)c1cccc(-c2cccc([C@@H](O)C(=O)N3CCc4nc(C5(c6ccccc6)CC5)[nH]c(=O)c4C3)c2)c1 [44-74] | < 50 | < 3
CC(C)c1csc(C2(c3nc4c(c(=O)[nH]3)CN(C(=O)[C@H](O)c3cccc(Cl)c3)CC4)CC2)c1 [15-8] | < 50 | < 10
O=C(C(O)c1cccc(-c2ccc(Cl)cc2)c1)N1CCc2nc(C3(c4cccc(Cl)c4)CC3)[nH]c(=O)c2C1 (stereo not shown) [14-9] | < 50 | < 10
O=C([C@H](O)c1cccc(-c2cc(Cl)cc(OC(F)(F)F)c2)c1)N1CCCc2nc(C3(c4cccc(Cl)c4)CC3)[nH]c(=O)c2C1 [50-16] | < 50 | < 10
CC(C)N(C)C(=O)c1csc(C2(c3nc4c(c(=O)[nH]3)CN(C(=O)[C@H](O)c3cccc(C(F)(F)F)c3)CCC4)CC2)c1 [59-5] | < 50 | 
O=C([C@H](O)c1cccc(-c2cccc(Cl)c2)c1)N1CCc2nc(C3(c4ccccc4)CC3)[nH]c(=O)c2C1 [44-73] | < 50 | < 10
O=C([C@H](O)c1cccc(C(F)(F)F)c1)N1CCc2nc(C3(c4cccc(-c5cccnc5)c4)CC3)[nH]c(=O)c2C1 [37-2] | < 50 | < 10

SMILES | IC50 [1] [nM] | IC50 [2] [nM]
O=C(N1CCCc2nc(C3(c4cccs4)CC3)[nH]c(=O)c2C1)C(F)(F)c1cccc(Cl)c1 [21-2] | < 50 | < 10
CC(C)Oc1cccc(-c2cccc([C@@H](O)C(=O)N3CCCc4nc(C5(c6cccc(Cl)c6)CC5)[nH]c(=O)c4C3)c2)c1 [50-13] | < 50 | < 10
O=C([C@H](O)c1cccc(-c2cccc(OC(F)(F)F)c2)c1)N1CCc2nc(C3(c4ccccc4)CC3)[nH]c(=O)c2C1 [44-72] | < 50 | < 3
O=C(C(O)c1cccc(S(F)(F)(F)(F)F)c1)N1CCc2nc(C3(c4cccc(Cl)c4)CC3)[nH]c(=O)c2C1 (stereo not shown) [14-17] | < 50 | 
O=C(C(O)c1cccc(-c2ccnc(C(F)(F)F)c2)c1)N1CCCc2nc(C3(c4ccccc4)CC3)[nH]c(=O)c2C1 (stereo not shown) [49-5] | < 50 | < 10
COCCn1cc(-c2cccc(C3(c4nc5c(c(=O)[nH]4)CN(C(=O)[C@H](O)c4cccc(C(F)(F)F)c4)CCC5)CC3)c2)cn1 [42-23] | < 50 | < 10
CC(C)(C)c1cccc(C(O)C(=O)N2CCc3nc(C4(c5cccc(F)c5)CC4)[nH]c(=O)c3C2)c1 (stereo not shown) [14-22] | < 50 | 
O=C([C@H](O)c1cccc(Cl)c1)N1CCCc2nc(C3(c4cncc(-c5cnsc5)c4)CC3)[nH]c(=O)c2C1 [19-10] | < 50 | 
CC(C)c1cncc(C2(c3nc4c(c(=O)[nH]3)CN(C(=O)C(F)(F)c3cccc(Cl)c3)CCC4)CC2)c1 [22-3] | < 50 | < 3
CC(C)c1csc(C2(c3nc4c(c(=O)[nH]3)CN(C(=O)[C@H](O)c3cccc(C(F)(F)F)c3)CC4)CC2)c1 [15-2] | < 50 | < 3
O=C([C@H](O)c1cccc(C(F)(F)F)c1)N1CCCc2nc(C3(c4ccnc(Oc5ccccc5)c4)CC3)[nH]c(=O)c2C1 [19-8] | < 50 | 
Cc1ccc(-c2cccc(C(O)C(=O)N3CCc4nc(C5(c6ccccc6)CC5)[nH]c(=O)c4C3)c2)cc1F (stereo not shown) [44-34] | < 50 | 
CC(C)(C)c1ccc(-c2cccc(CC(=O)N3CCCc4nc(C5(c6cccc(Cl)c6)CC5)[nH]c(=O)c4C3)c2)cc1 [17-127] | < 50 | < 10
CN1CCc2cc(-c3cccc(C4(c5nc6c(c(=O)[nH]5)CN(C(=O)[C@H](O)c5cccc(C(F)(F)F)c5)CCC6)CC4)c3)ccc21 [42-50] | < 50 | < 10
CN(Cc1ccc(Oc2ccccc2)cc1)C(=O)c1csc(C2(c3nc4c(c(=O)[nH]3)CN(C(=O)[C@H](O)c3cccc(C(F)(F)F)c3)CCC4)CC2)c1 [59-11] | < 50 | < 10
Cn1cc(-c2cccc(C3(c4nc5c(c(=O)[nH]4)CN(C(=O)[C@H](O)c4cccc(C(F)(F)F)c4)CCC5)CC3)c2)ccc1=O [42-38] | < 50 | 
Cc1cc(C)cc(-c2cccc([C@@H](O)C(=O)N3CCc4nc(C5(c6ccccc6)CC5)[nH]c(=O)c4C3)c2)c1 [44-113] | < 50 | 
O=C([C@H](O)c1cccc(-c2cccc(Cl)c2)c1)N1CCCc2nc(C3(c4cc(C5CCCCC5)cs4)CC3)[nH]c(=O)c2C1 [54-10] | < 50 | < 10
O=C([C@H](O)c1cccc(-c2cccc(C3CC3)c2)c1)N1CCCc2nc(C3(c4cccs4)CC3)[nH]c(=O)c2C1 [53-6] | < 50 | < 3
O=C(C(O)c1cccc(-c2cccc(OC(F)(F)F)c2)c1F)N1CCc2nc(C3(c4ccccc4)CC3)[nH]c(=O)c2C1 (stereo not shown) [44-2] | < 50 | < 10

SMILES | IC50 [1] [nM] | IC50 [2] [nM]
O=C(C(O)c1cccc(-c2ccccc2OC(F)(F)F)c1)N1CCc2nc(C3(c4ccccc4)CC3)[nH]c(=O)c2C1 (stereo not shown) [44-57] | < 50 | 
O=C(Cc1cccc(-c2cccc(C(F)(F)F)n2)c1)N1CCCc2nc(C3(c4cccc(Cl)c4)CC3)[nH]c(=O)c2C1 [57-7] | < 50 | < 10
Cc1csc(C2(c3nc4c(c(=O)[nH]3)CN(C(=O)[C@H](O)c3cccc(Cl)c3)CC4)CC2)c1 [6-20] | < 50 | 
O=C([C@H](O)c1cccc(-c2cccc(SC(F)(F)F)c2)c1)N1CCCc2nc(C3(c4ccccc4)CC3)[nH]c(=O)c2C1 [49-53] | < 50 | < 10
O=C([C@H](O)c1cccc(-c2ccc(OCc3ccccn3)cc2)c1)N1CCc2nc(C3(c4ccccc4)CC3)[nH]c(=O)c2C1 [44-87] | < 50 | 
O=C(C(O)c1cccc(-c2csc(Cl)c2)c1)N1CCc2nc(C3(c4ccccc4)CC3)[nH]c(=O)c2C1 (stereo not shown) [44-27] | < 50 | 
CC(C)(C)c1cccc(-c2cccc(CC(=O)N3CCc4nc(C5(c6cccc(Cl)c6)CC5)[nH]c(=O)c4C3)c2)c1 [45-13] | < 50 | < 10
O=C(C(O)c1cccc(OCc2ccccc2)c1)N1CCc2nc(C3(c4cccc(Cl)c4)CC3)[nH]c(=O)c2C1 (stereo not shown) [14-106] | < 50 | < 10
O=C([C@H](O)c1cccc(Cl)c1)N1CCc2nc(C3(c4cc(C5CCCCC5)cs4)CC3)[nH]c(=O)c2C1 [15-7] | < 50 | < 10
O=C(C(O)c1cccc(-c2cccc(C(F)(F)F)c2)c1)N1CCCc2nc(C3(c4cccc(Cl)c4)CC3)[nH]c(=O)c2C1 (stereo not shown) [17-16] | < 50 | < 10
O=C(C(F)c1ccccc1)N1CCc2nc(C3(c4ccccc4)CC3)[nH]c(=O)c2C1 (stereo not shown) [2-21] | < 50 | 
O=C([C@H](O)c1cccc(Cl)c1)N1CCCc2nc(C3(c4cccc(-c5cc6ccccc6s5)c4)CC3)[nH]c(=O)c2C1 [40-18] | < 50 | < 10
O=C([C@H](O)c1cccc(C(F)(F)F)c1)N1CCCc2nc(C3(c4cccc(-c5ccc6sccc6c5)c4)CC3)[nH]c(=O)c2C1 [17-96] | < 50 | < 10
O=C(Cc1cccc(Oc2ccccc2)c1)N1CCCc2nc(C3(c4cccc(Cl)c4)CC3)[nH]c(=O)c2C1 [17-140] | < 50 | 
O=C([C@H](O)c1cccc(C(F)(F)F)c1)N1CCc2nc(C3(c4ccccc4)CC3)[nH]c(=O)c2C1 [3-71] | < 50 | 
O=C(C(O)c1cccc(C(F)(F)F)c1F)N1CCCc2nc(C3(c4cccc(F)c4)CC3)[nH]c(=O)c2C1 (stereo not shown) [17-10] | < 50 | < 10
O=C(Cc1cccc(-c2cccc(C(F)(F)F)c2)c1)N1CCCc2nc(C3(c4ccccc4)CC3)[nH]c(=O)c2C1 [57-3] | < 50 | < 10
O=C([C@H](O)c1cccc(-c2cc3ccccc3s2)c1)N1CCCc2nc(C3(c4ccccc4)CC3)[nH]c(=O)c2C1 [49-28] | < 50 | < 3
